Results as given in paper PMC4867239 (Journal of biotechnology, 2016).
Ends that are not written are not given here.

Columns and labels:
S. aureus = experiment: microbe, parasite or virus in culture; conditions: Staphylococcus aureus, read-out: active at (MIC assay)
[1] = Phase 1 SAD/MAD plasma PK in healthy volunteers; assay type: in vivo, Human; conditions: humans
[2] = Quantitative whole body autoradiography with [14C]SGX94; assay type: in vivo, male CD-1 mice
[3] = Plasma PK in mice, 14 days of daily IV dosing; assay type: in vivo, Mouse (CD-1); conditions: for AUC(0-t) / Cmax / MRT / Tmax: CD-1, mouse, plasma, iv
[4] = Plasma PK in cynomolgus monkeys, 14 days of daily IV dosing; assay type: in vivo, Cynomolgus macaques; conditions: for AUC(0-t) / Cmax / MRT: cynomolgus monkey, plasma, iv

In the case of `CC[C@H]1OC(=O)[C@H](C)[C@@H](O[C@H]2C[C@@](C)(OC)[C@@H](O)[C@H](C)O2)[C@H](C)[C@@H](O[C@@H]2O[C@H](C)C[C@H](N(C)C)[C@H]2O)[C@](C)(O)C[C@@H](C)C(=O)[C@H](C)[C@@H](O)[C@]1(C)O` [erythromycin], the MIC (S. aureus) is reported as < 3.12 µg/mL.
For RIVPA-NH2 [SGX94, dusquetide], the PK half-life [1] was “very short (minutes)”, the “major analyte in blood” value ([2]; 20 mg/kg [14C]SGX94 IV, by 5 min post-dose) was “a metabolite of SGX94” and the “penetration into CNS, bone, white adipose and eye lens” value ([2]; QWBA, 20 mg/kg [14C]SGX94 IV bolus, male CD-1 mice) was “low penetration”. It also gave an AUC(0-t) ([3]; female, 20 mg/kg) of 1700 ng·h/mL, a Cmax ([3]; female, 20 mg/kg) of 8080 ng/mL and an MRT ([3]; female, 20 mg/kg) of 2 min. The AUC(0-t) ([3]; female, 60 mg/kg) was 6520 ng·h/mL, the Cmax ([3]; female, 60 mg/kg) was 27100 ng/mL and the MRT ([3]; female, 60 mg/kg) was 6.5 min. It also gave an AUC(0-t) ([3]; female, 90 mg/kg) of 10400 ng·h/mL, a Cmax ([3]; female, 90 mg/kg) of 45800 ng/mL and an MRT ([3]; female, 90 mg/kg) of 1.8 min. The AUC(0-t) ([3]; male, 20 mg/kg) was 4500 ng·h/mL, the Cmax ([3]; male, 20 mg/kg) was 23000 ng/mL and the MRT ([3]; male, 20 mg/kg) was 2.3 min. The Tmax ([3]; male, 20 mg/kg) was 3 min, the AUC(0-t) ([3]; male, 60 mg/kg) was 9290 ng·h/mL and the Cmax ([3]; male, 60 mg/kg) was 41200 ng/mL. It also gave an MRT ([3]; male, 60 mg/kg) of 1.8 min, a Tmax ([3]; male, 60 mg/kg) of 3 min and an AUC(0-t) ([3]; male, 90 mg/kg) of 17400 ng·h/mL. The Cmax ([3]; male, 90 mg/kg) was 72200 ng/mL, the MRT ([3]; male, 90 mg/kg) was 1.6 min and the Tmax ([3]; male, 90 mg/kg) was 3 min. The PK half-life ([3]; mouse) was “very short (minutes)”, the AUC(0-t) ([4]; female, 20 mg/kg) was 2410 ± 1230 ng·h/mL and the Cmax ([4]; female, 20 mg/kg) was 12400 ± 6410 ng/mL. For the same molecule, the MRT ([4]; female, 20 mg/kg) was 6.6 min, the AUC(0-t) ([4]; female, 80 mg/kg) was 3360 ± 4710 ng·h/mL and the Cmax ([4]; female, 80 mg/kg) was 16900 ± 24800 ng/mL. It also gave an MRT ([4]; female, 80 mg/kg) of 55 min, an AUC(0-t) ([4]; female, 160 mg/kg) of 36300 ± 26400 ng·h/mL and a Cmax ([4]; female, 160 mg/kg) of 179000 ± 132000 ng/mL. The MRT ([4]; female, 160 mg/kg) was 6.6 min, the AUC(0-t) ([4]; male, 20 mg/kg) was 1330 ± 438 ng·h/mL and the Cmax ([4]; male, 20 mg/kg) was 6650 ± 2520 ng/mL. It also gave an MRT ([4]; male, 20 mg/kg) of 7.8 min, an AUC(0-t) ([4]; male, 80 mg/kg) of 19400 ± 6910 ng·h/mL and a Cmax ([4]; male, 80 mg/kg) of 85900 ± 25800 ng/mL. It also gave an MRT ([4]; male, 80 mg/kg) of 7.8 min, an AUC(0-t) ([4]; male, 160 mg/kg) of 46000 ± 9570 ng·h/mL and a Cmax ([4]; male, 160 mg/kg) of 206000 ± 33400 ng/mL. For the same molecule, the MRT ([4]; male, 160 mg/kg) was 7.2 min and the PK half-life ([4]; non-human primate) was “very short (minutes)”.
